Reference: ChEMBL document CHEMBL4033787, “Glutathione S-Transferase π-Activatable O2-(Sulfonylethyl Derived) Diazeniumdiolates Potently Suppress Melanoma in Vitro and in Vivo” (J Med Chem, 2018)
Activity calls are given as the source filed them. The calls are words filed in the database; no cut-off is given here.

Experiments:
[1] = Substrate activity at GST-Pi in mouse JB6 Cl 30-7b cells assessed as NO release at 20 uM after 8 hrs by Griess assay; format: ADME, cell-based
[2] = system: B16; experiment: Antiproliferative activity against mouse B16 cells after 72 hrs by MTT assay; format: functional, cell-based; details: B16, 72 h
[3] = system: MCF7; experiment: Antiproliferative activity against human MCF7 cells after 72 hrs by MTT assay; format: functional, cell-based; details: MCF7, 72 h
[4] = system: B16; experiment: Antiproliferative activity against mouse B16 cells after 72 hrs in presence of equimolar concentration of (S)-2-amino-5-((R)-1-(carboxymethylamino)-1-oxo-3-(vinylsulfonyl)propan-2-ylamino)-5-oxopentanoic acid by MTT assay; format: functional, cell-based; details: B16, 72 h
[5] = system: HT-29; experiment: Antiproliferative activity against human HT-29 cells at 1 uM after 72 hrs by MTT assay; format: functional, cell-based
[6] = system: 9L-2; experiment: Antiproliferative activity against rat 9L-2 cells at 1 uM after 72 hrs by MTT assay; format: functional, cell-based
[7] = system: MCF7; experiment: Antiproliferative activity against human MCF7 cells at 1 uM after 72 hrs by MTT assay; format: functional, cell-based
[8] = system: B16; experiment: Antiproliferative activity against mouse B16 cells at 1 uM after 72 hrs by MTT assay; format: functional, cell-based
[9] = Antiproliferative activity against mouse JB6 Cl 30-7b cells after 72 hrs by MTT assay; format: cell-based
[10] = Drug metabolism assessed as GST-Pi (unknown origin)-mediated compound decomposition at 40 uM by UV spectrophotometric analysis; format: ADME; details: human, TDE = time-dependent effect
[11] = Drug metabolism assessed as GSTalpha (unknown origin)-mediated compound decomposition at 40 uM by UV spectrophotometric analysis; format: ADME; details: human
[12] = Stability of compound in normal saline after 500 mins by UV spectrophotometric analysis; format: physicochemical; details: buffer
[13] = system: Mus musculus; experiment: Toxicity in mouse assessed as weight loss at 7.5 to 30 mg/kg, iv dosed for every other day for 20 days; format: organism-based; details: in vivo, 480 h
[14] = system: B16; experiment: Antitumor activity against mouse B16 cells implanted in iv dosed nude mouse assessed as reduction in tumor volume administered every other day for 20 days; format: functional, organism-based
[15] = Selectivity index, ratio of IC50 for mouse JB6 Cl 30-7b cells to IC50 for mouse B16 cells; format: functional
[16] = system: B16; experiment: Antitumor activity against mouse B16 cells implanted in iv dosed nude mouse assessed as reduction in tumor weight administered every other day for 20 days; format: functional, organism-based
[17] = Substrate activity at GST-Pi in mouse B16 cells assessed as increase in NO release after 8 hrs by DAF-FM DA dye-based flow cytometric analysis; format: ADME, cell-based
[18] = system: B16; experiment: Antiproliferative activity against mouse B16 cells at 3 uM after 24 hrs in presence of GST-Pi inhibitor etacrynic acid by MTT assay; format: functional, cell-based
[19] = system: B16; experiment: Antitumor activity against mouse B16 cells implanted in nude mouse assessed as inhibition of tumor growth at 30 mg/kg, iv administered every other day for 20 days relative to control; format: functional; details: 480 h, read-out: TGI
[20] = system: B16; experiment: Antitumor activity against mouse B16 cells implanted in nude mouse assessed as inhibition of tumor growth at 15 mg/kg, iv administered every other day for 20 days relative to control; format: functional; details: 480 h, read-out: TGI
[21] = system: B16; experiment: Antiproliferative activity against mouse B16 cells at 3 uM after 24 hrs in presence of NO scavenger carboxy-PTIO by MTT assay; format: functional, cell-based
[22] = system: B16; experiment: Induction of nitration of mitochondrial cytochrome C in mouse B16 cells implanted in iv dosed mouse assessed as increase in nitrated cytochrome C levels administered every other day for 20 days by Western blot analysis; format: functional, organism-based
[23] = system: Mus musculus; experiment: Toxicity in mouse assessed as mortality at 7.5 to 30 mg/kg, iv dosed for every other day for 20 days; format: organism-based; details: in vivo, 480 h
[24] = system: B16; experiment: Induction of nitration of mitochondrial cytochrome C in mouse B16 cells assessed as increase in nitrated cytochrome C levels at 10 uM after 24 hrs in presence of NO scavenger hemoglobin by Western blot analysis; format: functional, cell-based
[25] = system: B16; experiment: Antitumor activity against mouse B16 cells implanted in nude mouse assessed as inhibition of tumor growth at 7.5 mg/kg, iv administered every other day for 20 days relative to control; format: functional; details: 480 h, read-out: TGI
[26] = system: B16; experiment: Antiproliferative activity against mouse B16 cells at 3 uM after 24 hrs in presence of NO scavenger hemoglobin by MTT assay; format: functional, cell-based
[27] = Substrate activity at GST-Pi in mouse B16 cells assessed as increase in NO release at 20 uM by Griess assay; format: ADME, cell-based; details: TDE = time-dependent effect
[28] = system: B16; experiment: Induction of nitration of mitochondrial cytochrome C in mouse B16 cells assessed as increase in nitrated cytochrome C levels at 10 uM after 24 hrs by Western blot analysis; format: functional, cell-based
[29] = system: B16; experiment: Antiproliferative activity against mouse B16 cells after 72 hrs in presence of equimolar concentration of 4-hydroxy-1-(oxido-NNO-azoxy)piperidine by MTT assay; format: functional, cell-based; details: B16, 72 h

For `CCOC(=O)N1CCN(/[N+]([O-])=N/Oc2ccc([N+](=O)[O-])cc2[N+](=O)[O-])CC1`, which Drug metabolism [1] is on record?
Its Drug metabolism is “Metabolite_Notdetected”.

What about the IC50 [2] of the same compound?
Its IC50 is 1340 nM.

And the IC50 [3]?
The IC50 was 993 nM.

With `[O-]/[N+](=N\O)N1CCC(O)CC1` as the compound, how does the IC50 [2] read?
Its IC50 is 928 nM.

And the IC50 [4]?
The IC50 was 553 nM.

Which results are given for `N[C@@H](CCC(=O)N[C@@H](CS(=O)(=O)CCO/N=[N+](\[O-])N1CCCC1CO)C(=O)NCC(=O)O)C(=O)O` (stereo not given in full)?
Activity [5]: Active; Activity [6]: inactive; Activity [7]: Active; Activity [8]: Active

For `N[C@@H](CCC(=O)N[C@@H](CS(=O)(=O)CCOP(=O)(N(CCCl)CCCl)N(CCCl)CCCl)C(=O)N[C@@H](C(=O)O)c1ccccc1)C(=O)O` [CANFOSFAMIDE], which IC50 [2] is on record?
The IC50 was 710 nM.

What about the IC50 [3] of the same compound?
Its IC50 is 870 nM.

With `N[C@@H](CCC(=O)N[C@@H](CS(=O)(=O)CCO/N=[N+](\[O-])N(CCCl)CCCl)C(=O)NCC(=O)O)C(=O)O` as the compound, how does the Activity [5] read?
Its Activity is “Active”.

And the Activity [6]?
The Activity was “inactive”.

What about the IC50 [2] of the same compound?
The IC50 was 404 nM.

And the Activity [7]?
The Activity was “Active”.

What about the Activity [8] of the same compound?
Its Activity is “Active”.

And the IC50 [3]?
The IC50 was 611 nM.

Which Activity [5] does the source give for `CCOC(=O)N1CCN(/[N+]([O-])=N/OCCS(=O)(=O)C[C@H](NC(=O)CC[C@H](N)C(=O)OC)C(=O)NCC(=O)OC)CC1` here?
The Activity was “Active”.

And the Activity [6]?
Its Activity is “inactive”.

And the IC50 [2]?
The IC50 was 195 nM.

And the Activity [7]?
Its Activity is “Active”.

And the Activity [8]?
Its Activity is “Active”.

And the IC50 [3]?
Its IC50 is 338 nM.

What does the source list for `N[C@@H](CCC(=O)N[C@@H](CS(=O)(=O)CCO/N=[N+](\[O-])N1CCC(O)CC1)C(=O)NCC(=O)O)C(=O)O`?
IC50 [9]: 1400 nM; Drug metabolism [10]: Tde; Drug metabolism [1]: Metabolite_Notdetected; Drug metabolism [11]: Metabolite_Notdetected; Activity [5]: Active; Activity [6]: inactive; Stability [12]: Stable; Activity [13]: Non-Toxic; IC50 [2]: 184 nM; Activity [7]: Active; Activity [14]: Dose-dependent effect; Ratio IC50 [15]: 8; Activity [16]: Dose-dependent effect; Drug metabolism [17]: Dose-dependent effect; Activity [18]: inactive; inhibition in vivo at 30 mg/kg [19]: 84.8%; inhibition in vivo at 15 mg/kg [20]: 76.2%; Activity [8]: Active; Activity [21]: inactive; Activity [22]: Dose-dependent effect; Activity [23]: Non-Toxic; Activity [24]: Active; inhibition in vivo at 7.5 mg/kg [25]: 42.3%; Activity [26]: inactive; Drug metabolism [27]: Tde; IC50 [3]: 306 nM; Activity [28]: Active

Which Activity [5] does the source give for `CCOC(=O)CNC(=O)[C@H](CS(=O)(=O)CCO/N=[N+](\[O-])N(CCCl)CCCl)NC(=O)CC[C@H](N)C(=O)OCC` here?
The Activity was “Active”.

And the Activity [6]?
Its Activity is “inactive”.

What about the Activity [7] of the same compound?
The Activity was “Active”.

And the Activity [8]?
The Activity was “Active”.

Which Activity [5] does the source give for `CCOC(=O)N1CCN(/[N+]([O-])=N/OCCS(=O)(=O)C[C@H](NC(=O)CC[C@H](N)C(=O)O)C(=O)NCC(=O)O)CC1` here?
The Activity was “Active”.

And the Activity [6]?
The Activity was “inactive”.

And the Activity [7]?
The Activity was “Active”.

What about the Activity [8] of the same compound?
Its Activity is “Active”.

With `C=CS(=O)(=O)C[C@H](NC(=O)CC[C@H](N)C(=O)O)C(=O)NCC(=O)O` as the compound, how does the IC50 [2] read?
The IC50 was 1910 nM.

What about the IC50 [29] of the same compound?
The IC50 was 553 nM.

And the Activity [24]?
Its Activity is “inactive”.

What does the source list for `N[C@@H](CCC(=O)N[C@@H](CS(=O)(=O)CCO/N=[N+](\[O-])N1CCCC1)C(=O)NCC(=O)O)C(=O)O`?
Activity [5]: Active; Activity [6]: inactive; Activity [7]: Active; Activity [8]: Active

With `CN(C)/N=N/c1[nH]cnc1C(N)=O` [DACARBAZINE] as the compound, how does the inhibition in vivo at 15 mg/kg [20] read?
The inhibition in vivo at 15 mg/kg was 49.9%.

What does the source list for `COC(=O)CNC(=O)[C@H](CS(=O)(=O)CCO/N=[N+](\[O-])N(CCCl)CCCl)NC(=O)CC[C@H](N)C(=O)OC`?
Activity [5]: Active; Activity [6]: inactive; Activity [7]: Active; Activity [8]: Active
